Assay results from patent publication US11304916B2 (priority 2019, dated 2022).
“Also recorded” adds a separate entry of the source. Where two headings read alike, the source gives them in different places.

What was measured:
STx2-induced cell death = assay type: cell-based, human
[1] = system: transport of STx2B to the Golgi apparatus; assay type: cell-based, human
[2] = system: pH of endolysosomal compartments; assay type: cell-based, human
[3] = system: transport of STx2B to the Golgi apparatus; conditions: cited from earlier work
[4] = system: transport of STx1 B-subunit (STx1B) to the Golgi; conditions: cited from earlier work
lethal STx1 toxicosis [5] = conditions: mouse, in vivo; cited from earlier work
[6] = system: recruitment of retromer component Vps26 to early endosomes; assay type: cell-based, human
HeLa cells = conditions: 10 μM
[7] = system: transport of STx1 B-subunit (STx1B) to the Golgi; assay type: cell-based, human
STx1-induced cell death = assay type: cell-based, human
LC3-positive punctae = assay type: cell-based, human
lethal STx1 toxicosis [8] = conditions: mouse, in vivo
lethal STx2 toxicosis = conditions: mouse, in vivo

CC/C(=C(\c1ccc(O)cc1)c1ccc(OCCN(C)C)cc1)c1ccccc1 [4-hydroxytamoxifen, (Z)-4-(1-(4-(2-(dimethylamino)ethoxy)phenyl)-2-phenylbut-1-en-1-yl)phenol]
Protection against STx2-induced cell death relative to tamoxifen (STx2-induced cell death): A lower level of protection

CO/C1=C\C(C)=C\[C@@H](C)[C@@H](O)[C@@H](C)C/C(C)=C/C=C/[C@H](OC)[C@@H]([C@@H](C)[C@@H](O)[C@H](C)[C@@]2(O)C[C@@H](O)[C@H](C)[C@@H](C(C)C)O2)OC1=O [bafilomycin A1]
STx2B transport after short treatment [1]: did not have an effect; also recorded: There were no differences between groups
Transport of STx2B to the Golgi apparatus [1]: robustly inhibited the transport of STx2B to the Golgi apparatus
Change in endolysosomal pH (Lysosensor signal) [2]: a similar effect was observed
Morphology of endolysosomal compartments [2]: morphological differences were apparent

CCN(CC)CCCC(C)Nc1ccnc2cc(Cl)ccc12 (stereo not drawn) [chloroquine]
Transport of STx2B to the Golgi apparatus [1]: inhibitors of STx2B transport

CC/C(=C(\c1ccc(O)cc1)c1ccc(OCCNC)cc1)c1ccccc1 [endoxifen, (Z)-4-(1-(4-(2-(methylamino)ethoxy)phenyl)-2-phenylbut-1-en-1-yl)phenol]
Protection against STx2-induced cell death relative to tamoxifen (STx2-induced cell death): substantially weaker than tamoxifen or 4-hydroxytamoxifen

[Mn+2] [manganese]
Sensitivity of STx2 transport to manganese (literature) [3]: manganese-insensitive
Early endosome-to-Golgi transport of STx1 (literature) [4]: blocks the early endosome-to-Golgi transport of STx1
Protection against lethal STx1-toxicosis (literature) (lethal STx1 toxicosis [5]): protects cells and mice against lethal STx1-toxicosis

OCCOc1ccc(/C(=C(/CCCl)c2ccccc2)c2ccccc2)cc1 [ospemifene]
Transport of STx2B to the Golgi (data not shown) [1]: did not
Protection against STx2-induced cell death relative to tamoxifen (STx2-induced cell death): failed to protect all together
Recruitment of Vps26 to early endosomes [6]: did not

O=C(c1ccc(OCCN2CCCCC2)cc1)c1c(-c2ccc(O)cc2)sc2cc(O)ccc12 [raloxifene, (6-hydroxy-2-(4-hydroxyphenyl)benzo[b]thiophen-3-yl)(4-(2-(piperidin-1-yl)ethoxy)phenyl)methanone]
Protection against STx2-induced cell death relative to tamoxifen (STx2-induced cell death): provided as much protection as tamoxifen against STx2-induced cell death
Cytotoxicity / cell viability of compound by itself (HeLa cells): did not alter cell viability by themselves

CC/C(=C(\c1ccccc1)c1ccc(OCCN(C)C)cc1)c1ccccc1 [tamoxifen, (Z)-2-(4-(1,2-diphenyl-1-butenyl)phenoxy)-N,N-dimethylethan-1-amine]
Fate of STx2B in treated cells [1]: the toxin failed to traffic to the Golgi and instead was rerouted to Rab7-positive late endosomes and degraded
STx2B transport after short treatment [1]: did not have an effect; also recorded: There were no differences between groups
Transport of STx2B to the Golgi apparatus [1]: inhibitors of STx2B transport
Inhibitory effect on STx2B transport compared with chloroquine ([1]; 24 h): had a greater inhibitory effect
Transport of STx1B to the Golgi and STx1B degradation [7]: inhibited the transport of STx1 B-subunit (STx1B) to the Golgi and induced degradation of STx1B
Lowest tamoxifen dose at which protection was evident (STx2-induced cell death): 2.5 µM
Protection against STx2-induced cell death (STx2-induced cell death): ~200 fold
Protection against STx1-induced cell death (STx1-induced cell death): ~50 fold
Change in endolysosomal pH (Lysosensor signal) [2]: an increase evident at early time-points (30-60 min) but not 24 h after treatment
Morphology of endolysosomal compartments [2]: morphological differences were apparent
Positioning of early endosomes [6]: gained a perinuclear prominence
Recruitment of Vps26 to early endosomes ([6]; 10 μM): enhanced
LC3-positive punctae (LC3-positive punctae): elevated
Health until end of experiment, STx1-group (lethal STx1 toxicosis [8]): a subset of tamoxifen-treated mice remained healthy until the end of the experiment
Survival of STx1-treated mice (lethal STx1 toxicosis [8]; ip): significantly improved the survival
Protection against STx2 with additional oral tamoxifen after toxin (lethal STx2 toxicosis): A similar level of protection against STx2
Survival time versus vehicle, STx2 (lethal STx2 toxicosis): survived for significantly longer than those that received vehicle
Survival of STx2-treated mice (lethal STx2 toxicosis; ip): significantly improved the survival
Cytotoxicity / cell viability of compound by itself (HeLa cells): without inducing cytotoxicity

CN(C)CCOc1ccc(/C(=C(/CCCl)c2ccccc2)c2ccccc2)cc1 [toremifene, (Z)-2-(4-(4-chloro-1,2-diphenylbut-1-en-1-yl)phenoxy)-N,N-dimethylethan-1-amine]
Transport of STx2B to the Golgi (data not shown) ([1]; 10 μM): blocked transport of STx2B to the Golgi
Protection against STx2-induced cell death relative to tamoxifen (STx2-induced cell death): provided as much protection as tamoxifen against STx2-induced cell death
Endolysosomal pH at 30 min (data not shown) ([2]; 10 μM, 30 min): increased endolysosomal pH at 30 min
Recruitment of Vps26 to early endosomes ([6]; 10 μM): increased Vps26 levels on early endosomes at 24 h
Cytotoxicity / cell viability of compound by itself (HeLa cells): did not alter cell viability by themselves
